From US12264146B2, “Rho kinase inhibitor, method for preparing same and uses thereof” (BEIJING INCREASE INNOVATIVE DRUG CO., LTD., priority 2018, dated 2025)

Key:
endothelin (ET-1) = experiment: Expression of endothelin (ET-1) in EA.Hy926 endothelial cells, detection kit; type: cell-based, human; details: EA.Hy926 cell supernatant, 48 h
Procedure: (§1) Commercially available cytokine kits were used to detect the effects of the compounds of the present application on vascular endothelium-derived contracting factor endothelin, vascular endothelium-derived relaxing factor endothelial nitric oxide synthase, nitric oxide, and prostacyclin factor. The detection was performed according to the kit instructions. When testing the effect of the compound of the present application on cytokines, a normal control group, a fasudil hydrochloride group, and high-, medium- and low-dose groups of the compounds of the present application were set up for testing. The fasudil hydrochloride used in this test example was purchased from Beijing Sihuan Pharmaceutical Co., Ltd., with the SFDA approval number of H20173349. The EA.Hy926 cells used in this test example were purchased from Suzhou Beina Chuanglian Biotechnology Co., Ltd.
EA.Hy926 cells were taken and inoculated in a 96-well plate at 5×10^4 cells/mL, 100 μL per well, and cultured adherently for 24 hours, then the test compound prepared in DMEM medium was added, and an equal volume of DMEM medium was added in the normal control group, then the cells were cultured at 37° C. for 48 hours, and then the cell supernatant was taken and placed in an EP tube, and centrifuged at 3000 r/min, 4° C. for 15 min. The resulting cell supernatant was transferred to a new EP tube, diluted twice with culture medium, and detected according to the instruction of the human endothelin detection kit (purchased from Wuhan Boster Biological Engineering Co., Ltd., batch number 59113731009), and the detection results were shown in Table 2.

[1] = test system: endothelial nitric oxide synthase (eNOS); experiment: Endothelial nitric oxide synthase (eNOS) in EA.Hy926 endothelial cells, detection kit; type: cell-based; details: EA.Hy926 cell supernatant, 24 h
Procedure: as §1
Detection conditions: EA.Hy926 cells were inoculated at 1×10^5 […] in a 96-well plate, 100 μL per well, and cultured adherently for 24 hours, then the test compound prepared with DMEM medium was added, the normal control group was added with an equal volume of DMEM medium, then the cells were cultured for 24 hours at 37° C., and then the cell supernatant was taken and placed in an EP tube, and centrifuged at 3000 r/min and 4° C. for 15 minutes, the resulting supernatant was transferred to a new EP tube, diluted 3 times, and detected according to the instruction of eNOs detection kit (purchased from Wuhan Elabscience Biotechnology Co., Ltd., Cat. No. AK0017OCT12013), and the detection results were shown in Table 4.

[2] = Toxicity test on endothelial cells EA.hy926, CCK-8 cell viability; type: cell-based; details: human, 1000~0.32 μmol/L, 5-fold dilution, read-out: IC50 of Test compound (cytotoxicity on EA.hy926 cells)
Procedure: In this test example, 31 groups, i.e., Groups 1 to 31, were set, in which Group 1 was a blank control group, Group 2 was a normal control group, Group 3 was a positive control group, and Groups 4 to 31 were test groups of the compounds of the present application. The specific test operation comprised: 100 μL of endothelial cells EA.hy926 (purchased from Suzhou Beina Chuanglian Biotechnology Co., Ltd.) with a density of 5×10^4 was added to each well of a 96-well plate, and transferred to an incubator at 37° C. with 5% CO2 and saturated humidity conditions and cultured for 24 hours, 100 μL of 2× the test compound solution prepared and diluted with DMEM medium containing 10% fetal bovine serum was added, in which the test compound added in the positive control group was Fasudil hydrochloride (purchased from Beijing Sihuan Pharmaceutical Co., Ltd., SFDA approval number H20173349) solution with different concentrations, an equal volume of DMEM medium was added in the blank control group, an equal volume of PBS buffer was added in the normal control group, and a duplicate well was set for each concentration point. After adding the test compound, the culture was continued in the incubator for 24 hours, then 20 μL of CCK-8 detection solution (purchased from Beijing Solarbio Science & Technology Co., Ltd., Cat. No. CA1210) was added to each well, interacted at 37° C. for 2.5 hours, shaken and mixed well, and then the absorbance value at 450 nm was detected.
OD values were detected, and the cell viability values of test groups of different concentrations were calculated according to the cell viability calculation formula as follows: Cell viability=(Atest group−Ablank control)/(Anormal control−Ablank control)*100%
wherein A represented absorbance value at 450 nm.
Prism6.0 was used to obtain the inhibitor concentration-viability curve and to calculate the IC50 of the test compound, the correlation coefficient R^2>0.99; the inhibitor concentration-viability curves of Fasudil hydrochloride, R-YK1601, R-YK1603, R-YK1606, R-YK1607, R-YK1610 were shown in FIGS. 1 to 6, in which the abscissa was the logarithm on base 10 of the concentration of the test compound, and the ordinate was the cell activity (i.e., cell viability).

Structure (SMILES)	expression of endothelin in endothelial cells: Detection result of test compound at low dose (0.4 μM) (endothelin (ET-1))	expression of endothelin in endothelial cells: Detection result of test compound at medium dose (2 μM) (endothelin (ET-1))	expression of endothelin in endothelial cells: Detection result of test compound at high dose (10 μM) (endothelin (ET-1))	expression of endothelial nitric oxide synthase in endothelial cells: Detection result of test compound at low dose (0.4 μM) [1]	expression of endothelial nitric oxide synthase in endothelial cells: Detection result of test compound at medium dose (2 μM) [1]	expression of endothelial nitric oxide synthase in endothelial cells: Detection result of test compound at high dose (10 μM) [1]	IC50 at 24 h [2]
CCCC[C@@H]1CNCCCN1S(=O)(=O)c1cccc2c(O)nccc12 [Compound R-YK1611, (R)-5-((2-butyl-1,4-diazacycloheptan-1-yl)sulfonyl)isoquinolin-1-ol]	238.20 ± 2.28 pg/mL	249.34 ± 7.96 pg/mL	235.68 ± 3.34 pg/mL	2652.53 ± 279.27 pg/mL	2291.59 ± 253.56 pg/mL	2195.70 ± 187.16 pg/mL	284 µM
C[C@@H]1CNCCCN1S(=O)(=O)c1cccc2cnccc12 [Compound R-YK1603, (R)-5-((2-methyl-1,4-diazacycloheptan-1-yl)sulfonyl)isoquinoline]	242.75 ± 52.53 pg/mL	252.72 ± 22.83 pg/mL	242.03 ± 1.24 pg/mL	2928.44 ± 257.48 pg/mL	2385.91 ± 387.57 pg/mL	2245.94 ± 213.65 pg/mL	256 µM
CC(C)[C@@H]1CNCCCN1S(=O)(=O)c1cccc2c(O)nccc12 [Compound R-YK1609, (R)-5-((2-isopropyl-1,4-diazacycloheptan-1-yl)sulfonyl)isoquinolin-1-ol]	222.75 ± 52.53 pg/mL	232.72 ± 22.83 pg/mL	242.03 ± 1.24 pg/mL	2728.44 ± 257.58 pg/mL	2375.91 ± 287.28 pg/mL	2235.87 ± 213.65 pg/mL	327 µM
O=S(=O)(c1cccc2cnccc12)N1CCCNC[C@H]1C1CC1 [Compound R-YK1608, (R)-5-((2-cyclopropyl-1,4-diazacycloheptan-1-yl)sulfonyl)isoquinoline]	233.55 ± 0.12 pg/mL	229.98 ± 11.41 pg/mL	239.23 ± 0.75 pg/mL	2697.85 ± 284.81 pg/mL	2344.00 ± 293.66 pg/mL	2269.45 ± 134.54 pg/mL	165 µM
COc1nccc2c(S(=O)(=O)N3CCCNC[C@H]3C)cccc12 [Compound R-YK1602, (R)-1-methoxy-5-((2-methyl-1,4-diazacycloheptan-1-yl)sulfonyl)isoquinoline]	263.55 ± 0.12 pg/mL	285.24 ± 13.22 pg/mL	238.19 ± 19.65 pg/mL	2607.85 ± 384.81 pg/mL	2314.00 ± 393.66 pg/mL	2262.45 ± 134.54 pg/mL	433 µM
C[C@@H]1CNCCCN1S(=O)(=O)c1cccc2c(O)ncc(C3CC3)c12 [Compound R-YK1600-1, (R)-4-cyclopropyl-5-((2-methyl-1,4-diazacycloheptan-1-yl)sulfonyl)isoquinolin-1-ol]	228.20 ± 2.28 pg/mL	229.34 ± 7.96 pg/mL	227.68 ± 3.34 pg/mL	2528.44 ± 267.48 pg/mL	2485.91 ± 287.57 pg/mL	2345.81 ± 213.65 pg/mL	188 µM
